According to patent publication US7838562B2, “Methods of inhibiting vascular permeability and apoptosis” (University of Connecticut, priority 2004, dated 2010):
Where two headings read alike, the source gives them in different places.

Key:
[1] = system: phospho-Akt; test: Western blot of Akt phosphorylation in HUVEC; format: cell-based, human; settings: for increase in Akt phosphorylation levels: 100 nM, after 5 minutes; for time of maximum Akt phosphorylation levels: data not shown; for Akt phosphorylation with Pertussis toxin: incubation with Pertussis toxin
Text: (§1) Endothelial cell morphogenesis, a phenomenon that requires endothelial cell migration, survival and adherens junction assembly, is mediated by the ligand-dependent activation of S1P1 and S1P3 receptors. […] The effects of FTY720-P and analogs on Akt and ERK phosphorylation in HUVEC were studied in a Western blot analysis. Confluent cultures of HUVEC cells were serum starved for two hours in 0.1% ffa-BSA M199 before treatments. Then, they were washed with ice-cold phosphate buffered saline (PBS) containing 1 mM sodium fluoride and 1 mM sodium orthovanadate and homogenized in radioimmunoprecipitation assay buffer (0.1% sodium dodecyl sulfate (SDS), 0.5% sodium deoxycholate, 1% NP-40, 1 mM sodium orthovanadate, 50 mM β-glycerophosphate and 1× protease inhibitor cocktail). Samples were centrifuged 10,000×g for 10 minutes, and protein concentrations of supernatants were determined by Bradford assay (BioRad Protein Dye Reagent). Equal amounts of protein were separated on a 10% polyacrylamide gel and blotted to a nitrocellulose membrane. Immunoblot analysis was performed using Phospho-Akt, Akt, phospho-ERK1/2 or ERK-1/2 antibodies.

[2] = system: phospho-ERK-1/2; test: Western blot of ERK-1/2 phosphorylation in HUVEC; format: cell-based, human; settings: for increase in ERK-1/2 phosphorylation levels: 100 nM, after 5 minutes; for time of maximum ERK phosphorylation levels: data not shown; for ERK-1 and ERK-2 phosphorylation with Pertussis toxin: incubation with Pertussis toxin
Text: as §1

[3] = system: kinase activity present in HUVEC (sphingosine kinase); test: in vitro kinase assay with total cell extract from HUVEC; format: biochemical, human
Method: To confirm that FTY720 and (R)-AAL are phosphorylated by endothelial cells, an in vitro kinase assay was performed with both total cell extract and conditioned medium from HUVEC. […] Cells were scraped at 4° C. with 400 μl of 25 mM HEPES pH 7.5, […], 1× protease inhibitor mixture, and disrupted by brief sonication. Cellular homogenates were centrifuged for 10 minutes, 4° C. at 20,000×g. In the kinase assay, 300 μl of conditioned medium (derived from 5×10^5 cells for 3 hours of incubation) or 10 μg of total cell extract from HUVEC were used as a source of kinase activity. […] Lipids were extracted and samples were resuspended in 50 μl of chloroform. Lipids were resolved by TLC on Silica Gel G60 using 1-butanol/acetic acid/water (60/20/20 volume/volume) buffer and quantified with a PhosphorImager (Molecular Dynamics).

[4] = system: VE-cadherin; test: VE-cadherin localization by immunofluorescence in HUVEC; format: cell-based, human; settings: 30 minutes; 10 nM (S1P 100 nM)
Method: The effects of FTY720-P and (R)-AFD on the localization of VE-cadherin were studied using immunofluorescence analysis. In this study, 2×10^5 cells were plated in 35 millimeter glass bottom petri dishes. Three days later, the cells were washed and serum starved for 3 hours before treatments. Then, the cells were washed with ice-cold PBS, fixed, and immunofluorescence analysis with VE-cadherin antibody was conducted (1 μg/ml Santa Cruz). The primary antibody staining was visualized with Rhodamine-conjugated goat anti-mouse (1:1000, Cappel) IgG. Confocal microscopy was conducted on a Zeiss LSM 510 laser-scanning confocal microscope. Rhodamine fluorescence was excited using a 543 nm Helium/Neon laser and emitted fluorescence was detected with a […] long-pass filter.

[5] = system: VEGF-induced vascular permeability; test: mouse ear microvascular permeability assay (VEGF-induced); format: in vivo, FVB/N mice; settings: mice, single oral administration (gavage, 50 μg) 5 hours prior
Method: The role of plasma borne FTY720-P or (R)-AFD in the regulation of vascular permeability was tested in vivo. In order to test this possibility, an in vivo vascular permeability model was used in FTY720, (R)-AFD or (S)-AAL-pretreated mice. […] Five hours post-gavage, animals were anesthetized with 2% Avertin™ (0.5 cc/20 g) and infused through the tail vein with 100 μl FITC-dextran (5 mg/ml, 165 kDa). Animals were placed on a warming table under a fluorescent dissecting microscope (Zeiss STV11, Zeiss, Inc.) and the central vessels in the ear were imaged. Control saline or mouse vascular endothelial growth factor (mVEGF, 10 ng/ml) was injected subdermally into the middle ear using a 30 gauge needle (30 μl). Ear vasculature was then imaged with fixed exposure times in a stationary position from 5 minutes to 120 minutes post-injection. Fluorescence images were then quantified using pixel-based threshold in ImageProPlus (Media Cybernetics, Inc.) and quantified.

[6] = target: T1, SK2 (Mus musculus, UniProt Q9JIA7)
T1 sequence (Q9JIA7 1-617): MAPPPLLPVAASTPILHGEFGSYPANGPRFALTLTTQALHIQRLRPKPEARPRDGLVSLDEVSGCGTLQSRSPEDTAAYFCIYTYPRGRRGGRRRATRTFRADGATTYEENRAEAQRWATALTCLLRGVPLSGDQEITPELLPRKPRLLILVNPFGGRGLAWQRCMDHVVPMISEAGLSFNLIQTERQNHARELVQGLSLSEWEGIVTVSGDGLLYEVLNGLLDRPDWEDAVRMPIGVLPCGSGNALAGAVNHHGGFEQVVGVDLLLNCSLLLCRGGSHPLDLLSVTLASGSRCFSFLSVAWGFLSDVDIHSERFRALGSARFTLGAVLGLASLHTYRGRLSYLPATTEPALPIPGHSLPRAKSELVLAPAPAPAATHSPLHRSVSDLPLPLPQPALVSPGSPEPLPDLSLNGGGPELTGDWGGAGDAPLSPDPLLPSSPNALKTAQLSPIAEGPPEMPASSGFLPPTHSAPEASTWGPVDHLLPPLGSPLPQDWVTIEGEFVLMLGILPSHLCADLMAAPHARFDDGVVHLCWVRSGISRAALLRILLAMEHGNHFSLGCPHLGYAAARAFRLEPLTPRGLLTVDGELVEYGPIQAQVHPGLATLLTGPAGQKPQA

[7] = system: HUVEC; test: HUVEC migration (96 well chemotaxis microchamber); settings: for migration induced by conditioned medium: compound incubated with HUVEC for 3 hours, conditioned medium used as chemoattractant; for induction of endothelial cell migration: compound used directly as chemoattractant, 4 hours; for fold induction at 0.01 µM: read-out: migration, fold induction at maximum effect; for induced migration in presence of Pertussis toxin: Pertussis toxin 200 ng/mL
Method: Briefly, polycarbonate filters with a pore size of 8 micrometers (μm) were coated with 5 micrograms per milliliter (μg/ml) fibronectin. […] Approximately 5×10^4 cells suspended in M199 with 0.1% bovine serum albumin were placed in the upper compartment. The cells were allowed to migrate for 4 hours at 37° C. in a humidified chamber with 5% CO2. After the incubation period, the filter was removed, and cells were stained in 0.1% crystal violet and eluted with 10% acetic acid in 96-well plates.
After incubation, conditioned medium was removed, centrifuged at 1,000×g for 10 minutes, and used in the migration assay.

[8] = system: HUVEC; test: apoptosis induced by serum deprivation in HUVEC (DNA fragmentation); format: cell-based, human; settings: for Emax at 0.01 µM: Homo sapiens, HUVEC, 10 nM, 8 hours serum deprivation, read-out: inhibition of DNA fragmentation (maximum effect); for anti-apoptotic effect with Pertussis toxin: Pertussis toxin treatment
Method: Since ERK-1 and ERK-2 activation is necessary for the survival effect of S1P in endothelial cells, it was tested if FTY720-P and its analog (R)-AFD could prevent apoptosis induced by serum deprivation in HUVEC. In this test, HUVEC cells were labeled with {methyl-^3H}-thymidine (1 μCi/ml) for 16 hours. Then, they were washed and 0.1% ffa-BSA M199 containing the different treatments was added. After 8 hours, fragmented DNA was solubilized and quantified as described.

[9] = system: Mouse embryonic endothelial cells; test: VEGF-induced paracellular permeability (Transwell, FITC-dextran); format: cell-based; settings: 100 nM, 1 hr pretreatment, 45 minute time point, VEGF 50 ng/ml
Method: Several studies have shown that VE-cadherin could be an important determinant of vascular permeability. […] A cellular system was used to assess the effects of S1P, FTY720-P and (R)-AFD on vascular permeability. Mouse embryonic endothelial cells (5×10^4) were cultured for 2 days in Transwell polycarbonate filters (6.5 mm diameter, 0.4 μm pores; Costar). Culture medium was replaced with serum/phenol red-free DMEM (HEPES buffer, L-glutamine, and pyridoxine hydrochloride) (0.1 mL upper chamber and 0.6 mL lower chamber). […] FITC-dextran (average MW=2,000 kDa), was added to the upper compartment either in the absence or presence of murine recombinant VEGF (50 ng/ml). Media from lower wells were taken after indicated time periods (5-45 minutes). Samples were placed in black solid bottom 96 well plates (Costar) and fluorescence intensities were measured using CytoFluor(R) fluorescence multi-well plate reader (Applied Biosystems) at 488 nm excitation. Data=mean±SE of duplicates. N=2. *p<0.01 VEGF vs. untreated. #p<0.01 treatments+VEGF vs. VEGF alone.

SMILES | VE-cadherin localization at cell-cell contact regions / translocation to adherens junctions [4] | inhibition of vascular permeability induced by VEGF [5] | migration induced by conditioned medium [7] | induction of endothelial cell migration [7] | increase in Akt phosphorylation levels [1] | Akt phosphorylation (in words) ([1]; 5 minute stimulation) | time of maximum Akt phosphorylation levels [1] | Akt phosphorylation with Pertussis toxin [1] | increase in ERK-1/2 phosphorylation levels [2] | ERK-1/2 phosphorylation (in words) ([2]; 5 minute stimulation) | time of maximum ERK phosphorylation levels [2] | ERK-1 and ERK-2 phosphorylation with Pertussis toxin [2] | concentration of maximum anti-apoptotic effect [8] | Emax at 0.01 µM [8] | anti-apoptotic effect with Pertussis toxin [8] | inhibition of VEGF-induced paracellular permeability [9] | concentration of maximum effect on migration [7] | fold induction at 0.01 µM ([7]; Homo sapiens, HUVEC) | induced migration in presence of Pertussis toxin [7] | other results
CCCCCCCOc1ccc(CC[C@@](C)(N)CO)cc1 (stereo in doubt) [AAL, 2-amino-2-methyl-4-[4-heptoxy-phenyl]butane-1-ol] | – | – | – | – | – | – | – | – | – | – | – | – | – | – | – | – | – | – | – | Akt phosphorylation (in words) [1]: did not induce phospho-Akt or phospho-ERK-1/2 levels; ERK-1/2 phosphorylation (in words) [2]: did not induce phospho-Akt or phospho-ERK-1/2 levels
CCCCCCCOc1ccc(CC[C@@](C)(N)CO)cc1 [(R)-AAL, 2-amino-2-methyl-4-[4-heptoxy-phenyl]butane-1-ol] | did not induce VE-cadherin translocation to the adherens junctions | potently inhibited vascular permeability in vivo | activated into potent chemoattractants for endothelial cells | Neither FTY720 nor its structural analog (R)-AAL induced endothelial cell migration | – | – | – | – | – | – | – | – | – | – | – | – | – | – | – | specific activity (phosphorylation of the substrate) ([3]; HUVEC total cell extract, 100 μM FTY720 or AAL, 20 μM sphingosine, 30 minutes): 15 ± 0.93 pmol/mg/min; specific activity (phosphorylation of the substrate) ([6]; SK2-[…]T, 100 μM FTY720 or (R)-AAL, 20 μM sphingosine): 199.5 pmol/min/mg
CCCCCCCOc1ccc(CC[C@@](C)(N)COP(=O)(O)O)cc1 [(R)-AFD] | increase in VE-cadherin localization at the cell-cell contact regions | – | – | potent chemoattractants for HUVEC | 4.5 fold | higher than the one induced by S1P | 5 min | blocked by incubation with Pertussis toxin | 8.2 fold | higher than the one induced by S1P | 5 min | blocked by incubation with Pertussis toxin | 10 nM | ~70% | blocked by Pertussis toxin treatment | profoundly inhibited | 10 nM | 9 | blocked by Pertussis toxin | –
CCCCCCCOc1ccc(CC[C@](C)(N)CO)cc1 [(S)-AAL, 2-amino-2-methyl-4-[4-heptoxy-phenyl]butane-1-ol] | – | but not (S)-AAL also potently inhibited vascular permeability in vivo | did not induce migration after incubation with endothelial cells | – | – | – | – | – | – | – | – | – | – | – | – | – | – | – | – | phosphorylation of the substrate ([3]; HUVEC kinase activity, 100 μM): undetectable; phosphorylation of the substrate ([6]; SK2-[…]T extract, 100 μM): barely detectable
CCCCCCCCc1ccc(CCC(N)(CO)COP(=O)(O)O)cc1 (stereo not drawn) [FTY720-P] | increase in VE-cadherin localization at the cell-cell contact regions | – | – | potent chemoattractants for HUVEC | 3.7 fold | higher than the one induced by S1P | 5 min | blocked by incubation with Pertussis toxin | 9.3 fold | higher than the one induced by S1P | 5 min | blocked by incubation with Pertussis toxin | 10 nM | ~70% | blocked by Pertussis toxin treatment | profoundly inhibited | 10 nM | 13 | blocked by Pertussis toxin | –
CCCCCCCCCCCCC/C=C/[C@@H](O)[C@@H](N)COP(=O)(O)O [S1P, Sphingosine-1-phosphate, reference compound] | comparable to that observed for S1P | – | – | – | – | – | 5 min | blocked by incubation with Pertussis toxin | – | – | 5 min | blocked by incubation with Pertussis toxin | – | – | blocked by Pertussis toxin treatment | profoundly inhibited | – | – | – | fold induction at 0.1 µM ([7]; Homo sapiens, HUVEC, read-out: migration, fold induction): 14
